target: LSD-1 enzyme (Homo sapiens (Human), UniProt O60341); assay: LANCE LSD1/KDM1A demethylase assay (LSD1 histone demethylase biochemical assay); details: 1 nM LSD-1 enzyme, 1 hour preincubation at 25° C., 0.4 μM Biotin-labeled Histone H3 peptide substrate
Protocol: LSD1 Histone Demethylase Biochemical Assay
LANCE LSD1/KDM1A demethylase assay-10 μL of 1 nM LSD-1 enzyme (ENZO BML-SE544-0050) in the assay buffer (50 mM Tris, pH 7.5, 0.01% Tween-20, 25 mM NaCl, 5 mM DTT) were preincubated for 1 hour at 25° C. with 0.8 μL compound/DMSO dotted in black 384 well polystyrene plates. […] Reactions were stopped by addition of 10 μL 1× LANCE Detection Buffer (PerkinElmer CR97-100) supplemented with 1.5 nM Eu-anti-unmodified H3K4 Antibody (PerkinElmer TRF0404), and 225 nM LANCE Ultra Streptavidin (PerkinElmer TRF102) along with 0.9 mM Tranylcypromine-HCl (Millipore 616431). After stopping the reactions plates were incubated for 30 minutes and read on a PHERAstar FS plate reader (BMG Labtech).

| SMILES | IC50 [nM] |
| --- | --- |
| COC(=O)N(C)c1ccc(-c2c(-c3ccc(C#N)cc3)nc(OC[C@@H]3CCCN(C)C3)c3cncn23)cc1F [Example 87, (R)-methyl (4-(6-(4-cyanophenyl)-8-((1-methylpiperidin-3-yl)methoxy)imidazo[1,5-a]pyrazin-5-yl)-2-fluorophenyl)(methyl)carbamate] | ≤ 50 |
| Cc1cc(-c2c(-c3ccc(C#N)cc3)nc(N3CCC(N(C)C)CC3)c3cncn23)cnc1C [Example 89, 4-[8-[4-(dimethylamino)piperidin-1-yl]-5-(5,6-dimethylpyridin-3-yl)imidazo[1,5-a]pyrazin-6-yl]benzonitrile] | ≤ 50 |
| COc1ncc(-c2c(-c3ccc(C#N)cc3)nc(N3CCC(N(C)C)CC3)c3cncn23)cc1F [Example 90, 4-[8-[4-(dimethylamino)piperidin-1-yl]-5-(5-fluoro-6-methoxypyridin-3-yl)imidazo[1,5-a]pyrazin-6-yl]benzonitrile] | ≤ 50 |
| Cc1ccc(-c2c(-c3ccc(C#N)cc3)nc(N3CCC(N(C)C)CC3)c3cncn23)cc1CO [Example 91, 4-{8-[4-(dimethylamino)piperidin-1-yl]-5-[3-(hydroxymethyl)-4-methylphenyl]imidazo[1,5-a]pyrazin-6-yl}benzonitrile] | ≤ 50 |
| Cc1ccc(-c2c(-c3ccc(C#N)cc3)nc(N3CCC(N(C)C)CC3)c3cncn23)c(CO)c1 [Example 92, 4-{8-[4-(dimethylamino)piperidin-1-yl]-5-[2-(hydroxymethyl)-4-methylphenyl]imidazo[1,5-a]pyrazin-6-yl}benzonitrile] | ≤ 50 |
| COc1ncc(-c2c(-c3ccc(C#N)cc3)nc(N3CCC(N(C)C)CC3)c3cncn23)cc1C [Example 93, 4-[8-[4-(dimethylamino)piperidin-1-yl]-5-(6-methoxy-5-methylpyridin-3-yl)imidazo[1,5-a]pyrazin-6-yl]benzonitrile] | ≤ 50 |
| COC(=O)N(C)c1ccc(-c2c(-c3ccc(C#N)cc3)nc(N3CCC(N(C)C)CC3)c3cncn23)cc1 [Example 95, methyl (4-(6-(4-cyanophenyl)-8-(4-(dimethylamino)piperidin-1-yl)imidazo[1,5-a]pyrazin-5-yl)phenyl)(methyl)carbamate] | ≤ 50 |
| Cc1ncc(-c2c(-c3ccc(C#N)cc3)nc(N3CCC(N(C)C)CC3)c3cncn23)cc1F [Example 97, 4-[8-[4-(dimethylamino)piperidin-1-yl]-5-(5-fluoro-6-methylpyridin-3-yl)imidazo[1,5-a]pyrazin-6-yl]benzonitrile] | ≤ 50 |
| CN(C)C1CCN(c2nc(-c3ccc(C#N)cc3)c(-c3ccc(OC(F)F)nc3)n3cncc23)CC1 [Example 98, 4-{5-[6-(difluoromethoxy)pyridin-3-yl]-8-[4-(dimethylamino)piperidin-1-yl]imidazo[1,5-a]pyrazin-6-yl}benzonitrile] | ≤ 50 |
| CCOc1ccc(-c2c(-c3ccc(C#N)cc3)nc(N3CCC(N(C)C)CC3)c3cncn23)cn1 [Example 99, 4-[8-[4-(dimethylamino)piperidin-1-yl]-5-(6-ethoxypyridin-3-yl)imidazo[1,5-a]pyrazin-6-yl]benzonitrile] | ≤ 50 |
| CN(C)C1CCN(c2nc(-c3ccc(C#N)cc3)c(-c3ccc4c(cnn4C)c3)n3cncc23)CC1 [Example 100, 4-[8-[4-(dimethylamino)piperidin-1-yl]-5-(1-methyl-1H-indazol-5-yl)imidazo[1,5-a]pyrazin-6-yl]benzonitrile] | ≤ 50 |
| CN1CCC[C@@H](COc2nc(-c3ccc(C#N)cc3)c(-c3ccc4c(c3)CC(O)C4)n3cncc23)C1 (stereo partly drawn) [Example 101, 4-(5-(2-hydroxy-2,3-dihydro-1H-inden-5-yl)-8-{[(3R)-1-methylpiperidin-3-yl]methoxy}imidazo[1,5-a]pyrazin-6-yl)benzonitrile] | ≤ 50 |
| CN1CCC[C@@H](COc2nc(-c3ccc(C#N)c(F)c3)c(-c3ccc4c(c3)CCC(=O)N4C)n3cncc23)C1 [Example 102, 2-fluoro-4-(5-(1-methyl-2-oxo-1,2,3,4-tetrahydroquinolin-6-yl)-8-{[(3R)-1-methylpiperidin-3-yl]methoxy}imidazo[1,5-a]pyrazin-6-yl)benzonitrile] | ≤ 50 |
| CN(C)C1CCN(c2nc(-c3ccc(C#N)cc3)c(-c3ccc4nccnc4c3)n3cncc23)CC1 [Example 103, 4-(8-(4-(dimethylamino)piperidin-1-yl)-5-(quinoxalin-6-yl)imidazo[1,5-a]pyrazin-6-yl)benzonitrile] | ≤ 50 |
| CN1C(=O)COc2cc(-c3c(-c4ccc(C#N)cc4)nc(N4CCC(N(C)C)CC4)c4cncn34)cnc21 [Example 105, 4-[8-[4-(dimethylamino)piperidin-1-yl]-5-(4-methyl-3-oxo-3,4-dihydro-2H-pyrido[3,2-b][1,4]oxazin-7-yl)imidazo[1,5-a]pyrazin-6-yl]benzonitrile] | ≤ 50 |
| CN1C(=O)OCc2cc(-c3c(-c4ccc(C#N)cc4)nc(N4CCC(N(C)C)CC4)c4cncn34)ccc21 [Example 106, 4-[8-[4-(dimethylamino)piperidin-1-yl]-5-(1-methyl-2-oxo-1,4-dihydro-2H-3,1-benzoxazin-6-yl)imidazo[1,5-a]pyrazin-6-yl]benzonitrile] | ≤ 50 |
| CN(C)C1CCN(c2nc(-c3ccc(C#N)cc3)c(-c3cnc4c(c3)ncn4C)n3cncc23)CC1 [Example 107, 4-[8-[4-(dimethylamino)piperidin-1-yl]-5-(3-methyl-3H-imidazo[4,5-b]pyridin-6-yl)imidazo[1,5-a]pyrazin-6-yl]benzonitrile] | ≤ 50 |
| CCn1c(=O)oc2cc(-c3c(-c4ccc(C#N)cc4)nc(N4CCC(N(C)C)CC4)c4cncn34)ccc21 [Example 108, 4-[8-[4-(dimethylamino)piperidin-1-yl]-5-(3-ethyl-2-oxo-2,3-dihydro-1,3-benzoxazol-6-yl)imidazo[1,5-a]pyrazin-6-yl]benzonitrile] | ≤ 50 |
| CN(C)C1CCN(c2nc(-c3ccc(C#N)cc3)c(-c3ccc4c(c3F)n(C)c(=O)n4C)n3cncc23)CC1 [Example 109, 4-[8-[4-(dimethylamino)piperidin-1-yl]-5-(4-fluoro-1,3-dimethyl-2-oxo-2,3-dihydro-1H-benzimidazol-5-yl)imidazo[1,5-a]pyrazin-6-yl]benzonitrile] | ≤ 50 |
| CCN1CCC[C@@H](COc2nc(-c3ccc(C#N)cc3)c(-c3cc4oc(=O)n(C)c4cc3F)n3cncc23)C1 [Example 111, 4-[8-{[(3R)-1-ethylpiperidin-3-yl]methoxy}-5-(5-fluoro-3-methyl-2-oxo-2,3-dihydro-1,3-benzoxazol-6-yl)imidazo[1,5-a]pyrazin-6-yl]benzonitrile] | ≤ 50 |
| CN(C)[C@H]1CCN(c2nc(-c3ccc(C#N)cc3)c(-c3cc4oc(=O)n(C)c4cc3F)n3cncc23)C1 [Example 113, 4-[8-[(3S)-3-(dimethylamino)pyrrolidin-1-yl]-5-(5-fluoro-3-methyl-2-oxo-2,3-dihydro-1,3-benzoxazol-6-yl)imidazo[1,5-a]pyrazin-6-yl]benzonitrile] | ≤ 50 |
| CCN1CCC[C@@H](COc2cc(-c3ccc(C#N)cc3)c(-c3ccc4c(c3)CC(=O)N4C)n3cncc23)C1 [Example 114, (R)-4-(8-((1-ethylpiperidin-3-yl)methoxy)-5-(1-methyl-2-oxoindolin-5-yl)imidazo[1,5-a]pyridin-6-yl)benzonitrile] | ≤ 50 |

Reference: patent publication US10047086B2, “Imidazopyridines and imidazopyrazines as LSD1 inhibitors” (Incyte Corporation, priority 2014, dated 2018)
